Molecules are shown by their SMILES. Read-outs that look alike come from different tables or passages of the source.

Inhibition and Ki data for 9 compounds are collected here from PMC6171417, “Carbonic anhydrase inhibition with a series of novel benzenesulfonamide-triazole conjugates” (Journal of Enzyme Inhibition and Medicinal Chemistry, 2018).

In assay [1] the test system is KM12. As to the kind of experiment: cells. Also on record: species or system NCI human tumour cell line panel; NCI one-dose anti-proliferative screen, human tumour cell line panel, growth inhibition percent (GI%). Particulars: Homo sapiens, KM12; growth inhibition (GI%), single dose.
The test system of another assay is BT-549. As to the kind of experiment: cells. Also on record: species or system NCI human tumour cell line panel; NCI one-dose anti-proliferative screen, human tumour cell line panel, growth inhibition percent (GI%). Particulars: Homo sapiens, BT-549; growth inhibition (GI%), single dose.
In another assay the test system is SF-295. As to the kind of experiment: cells. The following applies: Homo sapiens, SF-295; growth inhibition (GI%), single dose. Details: species or system NCI human tumour cell line panel; NCI one-dose anti-proliferative screen, human tumour cell line panel, growth inhibition percent (GI%).
In assay [2] the test system is TK-10. As to the kind of experiment: cells. The following applies: Homo sapiens, TK-10; growth inhibition (GI%), single dose. Details: species or system NCI human tumour cell line panel; NCI one-dose anti-proliferative screen, human tumour cell line panel, growth inhibition percent (GI%).
A further assay has as its target T1, hCA II (Homo sapiens, UniProt P00918).
T1 construct: gene CA2; recombinant, obtained in-house as reported earlier; cytosolic
As to the kind of experiment: stopped-flow CO2 hydrase assay. The format is biochemical. An excerpt: stopped-flow CO2 hydrase assay on hCA II

Another assay has as its target T2, hCA IX (Homo sapiens, UniProt Q16790).
T2 construct: gene CA9; recombinant, obtained in-house as reported earlier
As to the kind of experiment: stopped-flow CO2 hydrase assay. The format is biochemical. The source says:
stopped-flow CO2 hydrase assay on hCA IX

A further assay has as its target T3, hCA IV (Homo sapiens, UniProt P22748).
T3 construct: gene CA4; recombinant, obtained in-house as reported earlier
As to the kind of experiment: stopped-flow CO2 hydrase assay. It counts as biochemical. An excerpt: stopped-flow CO2 hydrase assay on hCA IV

In another assay the test system is SF-268. As to the kind of experiment: cells. Also on record: species or system NCI human tumour cell line panel; NCI one-dose anti-proliferative screen, human tumour cell line panel, growth inhibition percent (GI%). The following applies: Homo sapiens, SF-268; growth inhibition (GI%), single dose.
Another assay has as its system MDA-MB-231/ATCC. As to the kind of experiment: cells. Also on record: species or system NCI human tumour cell line panel; NCI one-dose anti-proliferative screen, human tumour cell line panel, growth inhibition percent (GI%). Particulars: Homo sapiens, MDA-MB-231; growth inhibition (GI%), single dose.
A further assay concerns SF-539. As to the kind of experiment: cells. Also on record: species or system NCI human tumour cell line panel; NCI one-dose anti-proliferative screen, human tumour cell line panel, growth inhibition percent (GI%). Particulars: Homo sapiens, SF-539; growth inhibition (GI%), single dose.
Another assay relates to ACHN. As to the kind of experiment: cells. The following applies: Homo sapiens, ACHN; growth inhibition (GI%), single dose. Details: species or system NCI human tumour cell line panel; NCI one-dose anti-proliferative screen, human tumour cell line panel, growth inhibition percent (GI%).
For a further assay, the system named is COLO 205. As to the kind of experiment: cells. Details: species or system NCI human tumour cell line panel; NCI one-dose anti-proliferative screen, human tumour cell line panel, growth inhibition percent (GI%). The following applies: Homo sapiens, COLO 205; growth inhibition (GI%), single dose.
A further assay deals with SK-MEL-2. As to the kind of experiment: cells. Also on record: species or system NCI human tumour cell line panel; NCI one-dose anti-proliferative screen, human tumour cell line panel, growth inhibition percent (GI%). Particulars: Homo sapiens, SK-MEL-2; growth inhibition (GI%), single dose.
The test system of another assay is HCC-2998. As to the kind of experiment: cells. The following applies: Homo sapiens, HCC 2998; growth inhibition (GI%), single dose. Details: species or system NCI human tumour cell line panel; NCI one-dose anti-proliferative screen, human tumour cell line panel, growth inhibition percent (GI%).
For assay [3], the system named is KM12. As to the kind of experiment: cells. The following applies: Homo sapiens, KM12; growth inhibition (GI%), single dose. Details: species or system NCI human tumour cell line panel.
A further assay deals with SNB-75. As to the kind of experiment: cells. Details: species or system NCI human tumour cell line panel. Particulars: Homo sapiens, SNB-75; growth inhibition (GI%), single dose.
In the next assay the test system is MDA-MB-435. As to the kind of experiment: cells. Particulars: Homo sapiens, MDA-MB-435; growth inhibition (GI%), single dose. Details: species or system NCI human tumour cell line panel.
The subject of the next assay is SNB-19. As to the kind of experiment: cells. Particulars: Homo sapiens, SNB-19; growth inhibition (GI%), single dose. Details: species or system NCI human tumour cell line panel.
A further assay deals with OVCAR-5. As to the kind of experiment: cells. Also on record: species or system NCI human tumour cell line panel. Particulars: Homo sapiens, OVCAR-5; growth inhibition (GI%), single dose.
The test system of a further assay is U251. As to the kind of experiment: cells. Details: species or system NCI human tumour cell line panel. Particulars: Homo sapiens, U-251; growth inhibition (GI%), single dose.
The next assay has as its system 786-0. As to the kind of experiment: cells. Details: species or system NCI human tumour cell line panel. Particulars: Homo sapiens, 786-0; growth inhibition (GI%), single dose.
The test system of the next assay is NCI-H522. As to the kind of experiment: cells. Also on record: species or system NCI human tumour cell line panel. The following applies: Homo sapiens, NCI-H522; growth inhibition (GI%), single dose.
For assay [4], the system named is TK-10. As to the kind of experiment: cells. Details: species or system NCI human tumour cell line panel. The following applies: Homo sapiens, TK-10; growth inhibition (GI%), single dose.

T3 sequence (P22748 19-284): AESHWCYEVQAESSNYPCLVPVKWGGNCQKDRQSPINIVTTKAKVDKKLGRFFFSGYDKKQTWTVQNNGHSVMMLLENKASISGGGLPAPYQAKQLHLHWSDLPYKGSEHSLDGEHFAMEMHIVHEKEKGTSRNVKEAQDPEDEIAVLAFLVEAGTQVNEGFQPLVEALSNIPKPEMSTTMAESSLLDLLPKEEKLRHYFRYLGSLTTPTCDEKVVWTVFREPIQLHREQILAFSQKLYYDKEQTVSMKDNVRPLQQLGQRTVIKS

Take `N#Cc1nnn(-c2ccc(S(N)(=O)=O)cc2)c1/N=C/c1ccc(Cl)cc1` [compound 9, 9]: the inhibition at 10 µM with KM12 [1] turned out to be 0.5%; in the assay with BT-549, 11.3%; with SF-295 it was 0.3%; in the assay on TK-10 [2], 7.6%.
On to `Nc1nc(=S)[nH]c2c1nnn2-c1ccc(S(N)(=O)=O)cc1` [compound 18, 4-(7-amino-5-thioxo-4,5-dihydro-3H-[1,2,3]triazolo[4,5-d]pyrimidin-3-yl)benzenesulfonamide], for which the Ki at hCA II was found to be 732 nM; at hCA IX, 272 nM; at hCA IV it was 489 nM. Moreover, the inhibition at 10 µM in the assay with SF-268 was found to be 1.5%; in the assay with MDA-MB-231/ATCC, 14.8%.
Consider `N#Cc1nnn(-c2ccc(S(N)(=O)=O)cc2)c1N` [compound 3, 3], for which the inhibition at 10 µM came to 1.9% in the assay with SF-539; 1.3% with ACHN; 2.8% in the assay with SF-268; 5.1% with COLO 205; 9.2% in the assay with TK-10 [2].
With `N#Cc1c(-c2ccc(Cl)cc2)nc2c(nnn2-c2ccc(S(N)(=O)=O)cc2)c1N` [compound 16, 4-(7-amino-5-(4-chlorophenyl)-6-cyano-3H-[1,2,3]triazolo[4,5-b]pyridin-3-yl)benzenesulfonamide], the inhibition constant Ki was determined as 169 nM on hCA II, 42.6 nM at hCA IX and 788 nM on hCA IV. The inhibition at 10 µM amounted to 5.4% with SF-268, 24.2% in the assay with MDA-MB-231/ATCC and 5.7% with SF-295.
Consider `CN(C)c1ccc(-c2nc3c(nnn3-c3ccc(S(N)(=O)=O)cc3)c(N)c2C#N)cc1` [compound 17, 4-(7-amino-6-cyano-5-(4-(dimethylamino)phenyl)-3H-[1,2,3]triazolo[4,5-b]pyridin-3-yl)benzenesulfonamide], for which the Ki on hCA II turned out to be 56.8 nM; at hCA IX (CO2 […], […] Hepes pH […] Na2SO4, […] phenol red, […] min pre-incubation at room temperature), 35.1 nM; on hCA IV, 473 nM. For the same compound, the inhibition at 10 µM came to 2.7% in the assay with SF-539; 5.9% in the assay on KM12 [1]; 0.3% in the assay on BT-549; 2.3% in the assay on SK-MEL-2; 9.3% with ACHN; 3.9% with SF-268. Moreover, the inhibition at 10 µM with COLO 205 worked out at 17%; in the assay with MDA-MB-231/ATCC, 18%; in the assay on SF-295 it was 3.1%; in the assay with HCC-2998 it was 3.9%.
Take `N#Cc1nnn(-c2ccc(S(N)(=O)=O)cc2)c1NS(=O)(=O)c1ccccc1` [compound 11, N-(4-cyano-1-(4-sulfamoylphenyl)-1H-1,2,3-triazol-5-yl)benzenesulfonamide]: the Ki at hCA II came out at 356 nM; at hCA IX, 144 nM; at hCA IV, 4520 nM. In the assay with SF-539, this compound had an inhibition at 10 µM of 3.2%.
Take `N#Cc1nnn(-c2ccc(S(N)(=O)=O)cc2)c1NCC(=O)c1ccccc1` [compound 7, 7]: the inhibition at 10 µM was 0.6% with KM12 [1]; 2% in the assay on BT-549; 2.2% in the assay on SK-MEL-2; 0.6% with ACHN; 6.5% in the assay on SF-268; 4.9% with MDA-MB-231/ATCC.
`N#Cc1nnn(-c2ccc(S(N)(=O)=O)cc2)c1NC(=O)CCl` [compound 5, 5]: the inhibition at 10 µM turned out to be 5.2% in the assay on KM12 [3]; 14.5% with SNB-75; 0.4% in the assay on MDA-MB-435; 3.8% with SNB-19; 3.4% with OVCAR-5; 7.7% in the assay with U251. For the same compound, the inhibition at 10 µM came out at 2.1% with 786-0, 5.1% with NCI-H522 and 3.6% in the assay with TK-10 [4].
In the case of `CCn1c(=S)[nH]c2c(nnn2-c2ccc(S(N)(=O)=O)cc2)c1=N` [compound 20, 4-(6-ethyl-7-imino-5-thioxo-4,5,6,7-tetrahydro-3H-[1,2,3]triazolo[4,5-d]pyrimidin-3-yl)benzenesulfonamide], the values for the Ki at hCA II, at hCA IX and on hCA IV were 930 nM, 242 nM and 875 nM, respectively. Further, the inhibition at 10 µM in the assay with SK-MEL-2 was determined as 8.2%; in the assay with HCC-2998 it was 2.2%.

A word on the inhibition: it is the change of the read-out against control, counted positive when it falls. Read a low inhibition as a response near the control. One may read the Ki as the dissociation constant of the complex between target and ligand, obtained from inhibition or displacement. Higher therefore signals a looser hold on the target.
